Test results taken from patent US6316409A, “Modified ligands of calcium-dependent binding proteins” (Medical Research Council, priority 1996, dated 2001).
Peptide text beside a SMILES is read from it.

Tests used:
[1] = target: T1, calmodulin (Bos taurus, UniProt P62157); assay: kinetic analysis of N9 replacement peptides and multiple mutant by the methods of Examples 3 and 4; type: binding
Experimental: Real-time interaction analysis by surface plasmon resonance on a BIAcore instrument (Jonsson et al., 1991) was used to determine kon and koff constants. […] Different concentrations of calmodulin (5, 10, 20, 50 and 100 nM in the order of FIG. 2) were injected and allowed to associate with the peptides. Regeneration of the surface was achieved by injection of 5 μl TBS+[…] which dissociates the calmodulin-peptide complex.
30 nM fluorescein-labelled peptide/calmodulin complexes in gel buffer were competed at room temperature for different times with 30-fold excess of unlabelled peptide. The resulting mixtures were run on native PAGE gels and imaged by LUANA as described above. The bands in the image obtained were integrated using the LUANA software (Neri et al., 1996) and the corresponding intersities plotted versus time and fitted with a single exponential, from which koff constants were derived. In order to normalise band intensities against pipetting errors, the samples contained 6 nM free fluorescein which ran with the front. The fluorescein bands were integrated and used to normalise the calmodulin/fluorescent peptide complex band intensity. […] Incubation time in minutes is indicated under the lanes.
Hydrophobic donor residues (valine, phenylalanine and leucine) were chosen because it was hypothesized that these residues would contribute to the stability of the hydrophobic environment in the calmodulin core.

[2] = target: T1, calmodulin; assay: koff by competition experiments, native PAGE of fluorescein-labelled peptide/calmodulin complexes; type: binding, bovine; parameters: Complexes between calmodulin from bovine brain (1 μM, Sigma); purchased Sigma; host or cells: bovine brain (tissue-derived); settings: for koff: competition with 30-fold excess unlabelled peptide, room temperature, gel buffer, read-out: koff (s^-1)^C
Experimental: Complexes between calmodulin from bovine brain (1 μM, Sigma) and fluorescein-labelled sMLCK-derived peptides (as described in Table 1 (SEQ ID NOS:2-18)) were prepared in gel buffer (25% gel mix [4 g sucrose+1 mg bromophenol blue in water to give a 10 ml solution]+75% TBSC [50 mM TRIS pH 7.4, […]+50 μM CaCl2)] and run on a 15% native PAGE gel (5 ml 30% acrylamide-bisacrylamide solution+4.5 ml water+0.5 ml 3M Tris, pH 8.8, +1 μl 1M CaCl2 polymerised with 30 μl 25% ammonium persulphate and 9 μl TEMED) using 14.4 g/l glycine+3 g/l Tris-base+0.1 mM CaCl2 as running buffer. Peptides were labelled either with iodoacetamido fluorescein (Molecular Probes) or with iodoacetamido-LC-biotin (Pierce) essentially as previously described by Neri et al., (1995). In these conditions, the fluorescence of the positively-charged labelled peptides can be detected only if they form a stable complex with calmodulin.
In order to obtain an independent experimental confirmation if the BIAcore results, koff constants for peptides 1-17 towards calmodulin were determined by competition experiments. 30 nM fluorescein-labelled peptide/calmodulin complexes in gel buffer were competed at room temperature for different times with 30-fold excess of unlabelled peptide. The resulting mixtures were run on native PAGE gels and imaged by LUANA as described above. The bands in the image obtained were integrated using the LUANA software (Neri et al., 1996) and the corresponding intersities plotted versus time and fitted with a single exponential, from which koff constants were derived. In order to normalise band intensities against pipetting errors, the samples contained 6 nM free fluorescein which ran with the front. The fluorescein bands were integrated and used to normalise the calmodulin/fluorescent peptide complex band intensity. The results of competitions for peptides 1, 2, 3, 6, 9, and 14 are shown in this FIG. 3. Incubation time in minutes is indicated under the lanes.
The volumes of the bands were plotted versus competition time and fitted to a single exponential, from which koff values were derived.
The fastest competitions (peptides 1-4, 9 and 13, SEQ ID NOS:2-5,10, and 14) were over by the time the calmodulin/fluorescent peptide complex entered the gel (approximately 5-10 minutes from pipetting a molar excess of unlabelled peptide; FIG. 3), from which a condition on the off-rate constant koff >1×10^-3 s^-1 was derived. Even for these fast off-rates, complexes can be detected by native polyacrylamide gel electrophoresis because of the well known gel "cage effect" (Fried and Crothers, 1981; Garner and Revzin, 1981).

[3] = target: T2, bovine brain calmodulin (Bos taurus, UniProt P62157); assay: stopped-flow measurement of kisom of calmodulin-binding peptides; settings: changes in tryptophan fluorescence
T2 construct: Complexes between calmodulin from bovine brain (1 μM, Sigma); purchased Sigma; host or cells: bovine brain (tissue-derived)
From the text: It has been shown by Torok and Trentham (1994) that smooth muscle MLCK-derived peptides bind to calmodulin with a biphasic kinetic according to the scheme: [drawing 1]
in which P is the peptide, C is calmodulin, P-C is the first complex formed on association of P and C, which then undergoes a conformational isomerisation to P-C*.
(§1) For a kinetic and thermodynamic characterisation of the binding of the peptides of the present invention to bovine brain calmodulin, we have measured the kinetic isomerisation, association, and dissociation constants from which dissociation constants can be derived.
kisom constants have been measured by stopped-flow, detecting changes in tryptophan fluorescence for all the peptides except 3 (SEQ ID NO:4), in which the tryptophan is replaced by alanine.

[4] = target: T2, bovine brain calmodulin; assay: BIAcore surface plasmon resonance, kon and koff of calmodulin binding to biotinylated peptides; settings: for koff: read-out: koff (s^-1)^B; for kon: read-out: kon (s^-1 M^-1)^B
From the text: as §1
koff =k-1·k-2 /(k+2 +k-2)
Real-time interaction analysis by surface plasmon resonance on a BIAcore instrument (Jonsson et al., 1991) was used to determine kon and koff constants. Biotinylated peptides 1-17 were bound to commercially available streptavidin-coated microsensor chips (Pharmacia Biosensor), in order to achieve a surface capacity of 100-200 surface plasmon resonance units of calmodulin bound. Different concentrations of calmodulin (5, 10, 20, 50 and 100 nM in the order of FIG. 2) were injected and allowed to associate with the peptides. Regeneration of the surface was achieved by injection of 5 μl TBS+[…] which dissociates the calmodulin-peptide complex.

SMILES	koff ([1]; Table II, N9 replacement) [s⁻¹]	kon ([1]; Table II, N9 replacement) [M⁻¹ s⁻¹]	koff [2] [s⁻¹]	kisom. (s^-1)^A [3]	koff ([4]; BIAcore) [s⁻¹]	kon ([4]; BIAcore) [M⁻¹ s⁻¹]	also measured
CC[C@H](C)[C@H](NC(=O)[C@H](Cc1ccccc1)NC(=O)[C@@H](NC(=O)[C@H](CCCCN)NC(=O)[C@H](CCCCN)NC(=O)[C@H](Cc1c[nH]c2ccccc12)NC(=O)[C@H](CCCNC(=N)N)NC(=O)[C@H](C)NC(=O)[C@H](C)NC(=O)[C@H](C)NC(=O)[C@@H](N)CS)C(C)C)C(=O)N[C@@H](C)C(=O)N[C@H](C(=O)N[C@@H](CO)C(=O)N[C@@H](C)C(=O)N[C@@H](C)C(=O)N[C@@H](CC(N)=O)C(=O)N[C@@H](CCCNC(=N)N)C(=O)N[C@@H](Cc1ccccc1)C(=O)N[C@@H](CCCCN)C(=O)N[C@@H](CCCCN)C(=O)N[C@H](C(=O)N[C@@H](CO)C(N)=O)[C@@H](C)CC)C(C)C [a] (H-CAAARWKKVFIAVSAANRFKKIS-NH2; N-terminus and C-terminus assumed)	0.00035	850000					
CC[C@H](C)[C@H](NC(=O)[C@H](Cc1ccccc1)NC(=O)[C@H](Cc1ccccc1)NC(=O)[C@H](CCCCN)NC(=O)[C@H](CCCCN)NC(=O)[C@H](Cc1c[nH]c2ccccc12)NC(=O)[C@H](CCCNC(=N)N)NC(=O)[C@H](C)NC(=O)[C@H](C)NC(=O)[C@H](C)NC(=O)[C@@H](N)CS)C(=O)N[C@@H](C)C(=O)N[C@H](C(=O)N[C@@H](CO)C(=O)N[C@@H](C)C(=O)N[C@@H](C)C(=O)N[C@@H](CC(N)=O)C(=O)N[C@@H](CCCNC(=N)N)C(=O)N[C@@H](Cc1ccccc1)C(=O)N[C@@H](CCCCN)C(=O)N[C@@H](CCCCN)C(=O)N[C@H](C(=O)N[C@@H](CO)C(N)=O)[C@@H](C)CC)C(C)C [b] (H-CAAARWKKFFIAVSAANRFKKIS-NH2; N-terminus and C-terminus assumed)	2.9e-05	290000					
CC[C@H](C)[C@H](NC(=O)[C@H](Cc1ccccc1)NC(=O)[C@H](CC(C)C)NC(=O)[C@H](CCCCN)NC(=O)[C@H](CCCCN)NC(=O)[C@H](Cc1c[nH]c2ccccc12)NC(=O)[C@H](CCCNC(=N)N)NC(=O)[C@H](C)NC(=O)[C@H](C)NC(=O)[C@H](C)NC(=O)[C@@H](N)CS)C(=O)N[C@@H](C)C(=O)N[C@H](C(=O)N[C@@H](CO)C(=O)N[C@@H](C)C(=O)N[C@@H](C)C(=O)N[C@@H](CC(N)=O)C(=O)N[C@@H](CCCNC(=N)N)C(=O)N[C@@H](Cc1ccccc1)C(=O)N[C@@H](CCCCN)C(=O)N[C@@H](CCCCN)C(=O)N[C@H](C(=O)N[C@@H](CO)C(N)=O)[C@@H](C)CC)C(C)C [c] (H-CAAARWKKLFIAVSAANRFKKIS-NH2; N-terminus and C-terminus assumed)	2.3e-05	1.1e+06					
CC[C@H](C)[C@H](NC(=O)[C@H](CCCCN)NC(=O)[C@H](C)NC(=O)[C@H](Cc1ccccc1)NC(=O)[C@H](CCCNC(=N)N)NC(=O)[C@H](CC(N)=O)NC(=O)[C@H](C)NC(=O)[C@H](C)NC(=O)[C@H](C)NC(=O)[C@@H](NC(=O)[C@H](C)NC(=O)[C@@H](NC(=O)[C@H](Cc1ccccc1)NC(=O)[C@H](C)NC(=O)[C@H](CCCCN)NC(=O)[C@H](CCCCN)NC(=O)[C@H](Cc1c[nH]c2ccccc12)NC(=O)[C@H](CCCNC(=N)N)NC(=O)[C@H](C)NC(=O)[C@H](C)NC(=O)[C@H](C)NC(=O)[C@@H](N)CS)[C@@H](C)CC)C(C)C)C(=O)N[C@@H](C)C(N)=O [SEQ ID NO:19] (H-CAAARWKKAFIAVAAANRFAKIA-NH2; N-terminus and C-terminus assumed)							affinity for calmodulin compared with other peptides, in words [1]: comparable to that of peptide 6; koff ([1]; multiple mutant): 5.9e-06 s⁻¹; kon ([1]; multiple mutant): 610000 M⁻¹ s⁻¹
CC[C@H](C)[C@H](NC(=O)[C@H](C)NC(=O)[C@H](CC(N)=O)NC(=O)[C@H](CCCCN)NC(=O)[C@H](CCCCN)NC(=O)[C@H](Cc1c[nH]c2ccccc12)NC(=O)[C@H](CCCNC(=N)N)NC(=O)[C@H](C)NC(=O)[C@H](C)NC(=O)[C@H](C)NC(=O)[C@@H](N)CS)C(=O)N[C@@H](C)C(=O)N[C@H](C(=O)N[C@@H](CO)C(=O)N[C@@H](C)C(=O)N[C@@H](C)C(=O)N[C@@H](CC(N)=O)C(=O)N[C@@H](CCCNC(=N)N)C(=O)N[C@@H](Cc1ccccc1)C(=O)N[C@@H](CCCCN)C(=O)N[C@@H](CCCCN)C(=O)N[C@H](C(=O)N[C@@H](CO)C(N)=O)[C@@H](C)CC)C(C)C [Peptide 7] (H-CAAARWKKNAIAVSAANRFKKIS-NH2; N-terminus assumed)			0.0006	2.5 (10.7) × 10^-1 s^-1	0.00039	900000	
CC[C@H](C)[C@H](NC(=O)[C@H](Cc1ccccc1)NC(=O)[C@H](CC(N)=O)NC(=O)[C@H](CCCCN)NC(=O)[C@H](CCCCN)NC(=O)[C@H](Cc1c[nH]c2ccccc12)NC(=O)[C@H](C)NC(=O)[C@H](C)NC(=O)[C@H](C)NC(=O)[C@H](C)NC(=O)[C@@H](N)CS)C(=O)N[C@@H](C)C(=O)N[C@H](C(=O)N[C@@H](CO)C(=O)N[C@@H](C)C(=O)N[C@@H](C)C(=O)N[C@@H](CC(N)=O)C(=O)N[C@@H](CCCNC(=N)N)C(=O)N[C@@H](Cc1ccccc1)C(=O)N[C@@H](CCCCN)C(=O)N[C@@H](CCCCN)C(=O)N[C@H](C(=O)N[C@@H](CO)C(N)=O)[C@@H](C)CC)C(C)C [Peptide 2] (H-CAAAAWKKNFIAVSAANRFKKIS-NH2; N-terminus assumed)			≥ 0.001	1.2 (10.5) × 10^-1 s^-1	0.0015	3e+06	dissociation from calmodulin in competition with excess unlabelled peptide, in words ([2]; FIG. 3): dissociated from calmodulin in a few minutes; increase in kon with respect to the wild-type peptide 1 ([4]; BIAcore): 4-5 fold
CC[C@H](C)[C@H](NC(=O)[C@H](CCCCN)NC(=O)[C@H](CCCCN)NC(=O)[C@H](Cc1ccccc1)NC(=O)[C@H](CCCNC(=N)N)NC(=O)[C@H](CC(N)=O)NC(=O)[C@H](C)NC(=O)[C@H](C)NC(=O)[C@H](CO)NC(=O)[C@@H](NC(=O)[C@H](C)NC(=O)[C@@H](NC(=O)[C@H](Cc1ccccc1)NC(=O)[C@H](CC(N)=O)NC(=O)[C@H](CCCCN)NC(=O)[C@H](CCCCN)NC(=O)[C@H](Cc1c[nH]c2ccccc12)NC(=O)[C@H](CCCNC(=N)N)NC(=O)[C@H](C)NC(=O)[C@H](C)NC(=O)[C@H](C)NC(=O)[C@@H](N)CS)[C@@H](C)CC)C(C)C)C(=O)N[C@@H](C)C(N)=O [Peptide 17] (H-CAAARWKKNFIAVSAANRFKKIA-NH2; N-terminus assumed)			7e-05	1.3 (10.4) × 10^-1 s^-1	0.00013	820000	improvement of koff with respect to wild type, in words [4]: largest improvements; improvement in Kd / affinity for calmodulin over the wild type peptide, in words ([4]; Table 1): greatest improvement in Kd
